Source: patent US9796711B2, “Substituted pyrazolo[3,4-b]pyridin-6-carboxylic acids and method of use” (AbbVie S.àr.l., priority 2015, dated 2017)

How the values were obtained:
[1] = biological target: T1, CFTR ΔF508 (Homo sapiens, UniProt P13569, DEL508-508); experiment: Acute TECC assay on primary bronchial epithelial cells, with and without co-corrector; type: cell-based; details: normalized to DMSO and positive control; for % Activity at 10 μM (Ieq*): bronchial epithelial cells from CF patients homozygous for CFTR ΔF508, 10 μM test compound for 24 h, without co-corrector, Ieq based on the maximum current; for % Activity at 3 μM with co-corrector (Ieq): bronchial epithelial cells from CF patients homozygous for CFTR ΔF508, 3 μM test compound for 24 h
T1 construct: bronchial epithelial cells isolated from CF patients homozygous for the CFTR ΔF508 mutation; McGill University; Asterand; University of North Carolina hAEC-CF; host or cells: primary human bronchial epithelial cells from CF patients homozygous for ΔF508
T1 sequence (P13569 with tags, fused parts or gaps DEL508-508): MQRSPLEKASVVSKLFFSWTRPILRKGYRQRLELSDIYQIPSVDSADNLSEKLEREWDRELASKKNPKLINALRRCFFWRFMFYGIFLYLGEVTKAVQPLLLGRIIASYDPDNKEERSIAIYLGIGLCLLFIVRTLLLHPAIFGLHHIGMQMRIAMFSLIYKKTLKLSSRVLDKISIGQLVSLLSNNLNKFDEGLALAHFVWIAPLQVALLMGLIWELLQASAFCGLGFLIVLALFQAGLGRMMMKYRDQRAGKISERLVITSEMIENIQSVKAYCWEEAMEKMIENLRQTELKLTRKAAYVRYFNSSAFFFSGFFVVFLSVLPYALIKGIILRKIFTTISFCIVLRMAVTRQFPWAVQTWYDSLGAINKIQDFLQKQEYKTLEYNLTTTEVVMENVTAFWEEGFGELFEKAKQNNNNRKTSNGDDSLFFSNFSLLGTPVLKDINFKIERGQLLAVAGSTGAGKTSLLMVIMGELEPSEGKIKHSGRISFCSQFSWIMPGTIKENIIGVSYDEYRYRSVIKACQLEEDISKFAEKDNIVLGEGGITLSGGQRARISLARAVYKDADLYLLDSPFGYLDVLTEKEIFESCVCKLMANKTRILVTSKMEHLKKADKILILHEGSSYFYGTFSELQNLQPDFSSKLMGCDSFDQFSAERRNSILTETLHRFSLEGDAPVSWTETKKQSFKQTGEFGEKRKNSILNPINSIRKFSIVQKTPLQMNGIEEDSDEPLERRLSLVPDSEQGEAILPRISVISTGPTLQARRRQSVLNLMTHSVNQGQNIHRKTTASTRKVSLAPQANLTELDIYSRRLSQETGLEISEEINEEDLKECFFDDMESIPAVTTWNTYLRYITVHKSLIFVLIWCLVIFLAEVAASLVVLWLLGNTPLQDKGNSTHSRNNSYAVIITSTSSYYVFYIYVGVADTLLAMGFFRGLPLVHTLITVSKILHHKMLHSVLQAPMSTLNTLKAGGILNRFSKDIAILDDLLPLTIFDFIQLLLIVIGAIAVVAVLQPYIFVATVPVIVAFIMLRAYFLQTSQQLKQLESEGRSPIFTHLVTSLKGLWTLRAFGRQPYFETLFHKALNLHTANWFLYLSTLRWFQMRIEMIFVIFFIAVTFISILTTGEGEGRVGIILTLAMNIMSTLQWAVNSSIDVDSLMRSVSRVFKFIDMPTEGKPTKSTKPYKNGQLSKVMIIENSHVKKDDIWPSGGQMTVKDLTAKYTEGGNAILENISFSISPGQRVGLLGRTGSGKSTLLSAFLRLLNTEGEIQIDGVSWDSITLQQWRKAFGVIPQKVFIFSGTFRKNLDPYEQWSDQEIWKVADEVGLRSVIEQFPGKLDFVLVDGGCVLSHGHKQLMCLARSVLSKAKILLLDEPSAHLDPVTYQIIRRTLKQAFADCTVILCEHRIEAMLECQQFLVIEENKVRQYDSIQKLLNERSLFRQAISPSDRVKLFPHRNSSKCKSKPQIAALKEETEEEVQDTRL
Procedure: Primary Bronchial Epithelial Cells Protocol
The TECC (Tranepithelial Clamp Circuit, EP-design) assay measures the functionality of the cystic fibrosis Transmembrane Conductance regulator (CFTR) by measuring the short circuit current (Isc) generated over the basolateral and apical membrane of lung epithelial cells. In TECC the transepithelial potential PD and transepithelial resistance (Rt)) are measured in an open circuit and transformed to Ieq using Ohm's law. 24 Wells can be measured simultaneously allowing a higher throughput compared to Ussing chambers.
For this purpose, bronchial epithelial cells isolated from CF patients homozygous for the CFTR ΔF508 mutation (hAEC-CF, Epithelix, Geneva, Switzerland; McGill University, Montreal, Qc; Asterand, Detroit, Mich.; University of North Carolina, Chapel Hill, N.C.) are plated on type IV collagen-coated Transwell® supports (Costar). Human airway epithelia are generated by provision of an air-liquid interface for 21 days to form well-differentiated polarized cultures that resemble in vivo pseudo-stratified ciliated epithelium (Fulcher, M. L., Gabriel, S., Burns, K. A., Yankaskas, J. R., Randell, S. H., 2005. Well-differentiated human airway epithelial cell cultures. Methods Mol. Med. 107, 183-206). The differentiated cells are treated with test corrector compound(s) (corrector alone or in combination with co-corrector, 4-[(2R,4R)-4-({[1-(2,2-difluoro-1,3-benzodioxol-5-yl)cyclopropyl]carbonyl}amino)-7-methoxy-3,4-dihydro-2H-chromen-2-yl]benzoic acid (G924806/A-1618261) (“acute”) or test corrector compounds, co-corrector and potentiator, N-(3-carbamoyl-5,5,7,7-tetramethyl-4,7-dihydro-5H-thieno[2,3-c]pyran-2-yl)-1H-pyrazole-5-carboxamide GLPG1837, (“chronic”) for 24 hours basolaterally to allow sufficient expression of properly folded CFTR protein on the membrane. All compound plates contained negative controls (DMSO) and positive controls (0.15 μM, 4-[(2R,4R)-4-({[1-(2,2-difluoro-1,3-benzodioxol-5-yl)cyclopropyl]carbonyl}amino)-7-(difluoromethoxy)-3,4-dihydro-2H-chromen-2-yl]benzoic acid).
For electrophysiological recording of the “acute” experiments, the human airway epithelia are mounted in the TECC heating plate and kept at 37° C. The epithelia are bathed in a NaCl-Ringer solution (120 mM NaCl, 25 mM NaHCO3, 1.2 mM CaCl2, 1.2 mM MgCl2, 0.8 mM KH2PO4, 0.8 mM K2HPO4, pH 7.4, 5 mM glucose) on both the basolateral and apical sides. Apical amiloride is used to inhibit the endogenous epithelial sodium channel (ENaC) currents while forskolin is applied on both apical and basolateral side to stimulate CFTR. CFTR activity is measured by addition of forskolin followed by addition of a potentiator, N-(3-carbamoyl-5,5,7,7-tetramethyl-4,7-dihydro-5H-thieno[2,3-c]pyran-2-yl)-1H-pyrazole-5-carboxamide, on both sides. Measurements are done during a 20 minute timeframe with recordings every 2 minutes. The increase in Ieq is used as a measure for the increased CFTR activity, EC50 values can be generated by measuring impact of different concentrations of compound on Ieq on primary cells, for this purpose each transwell is treated with a different compound concentration for 24 hours. Inhibitor-172, an inhibitor specific for CFTR, is used to test the specificity of the tested compounds. Raw data were normalized to percentage activity values using the equation: 100×(Sample−Negative control)/(Positive control−Negative Control).

[2] = biological target: T1, CFTR ΔF508; experiment: Chronic TECC assay on primary bronchial epithelial cells (corrector, co-corrector and potentiator); type: cell-based; details: chronic TECC, Ieq = calculations based on the maximum current, with co-corrector and potentiator, 24 hours; for EC50: read-out: EC50 (nM) (Ieq)
In short: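 Differentiated airway epithelia from CFTR ΔF508-homozygous CF patients (21 days air-liquid interface) were treated basolaterally for 24 h with corrector plus co-corrector and potentiator; compounds were re-added before TECC recording at 37 °C in NaCl-Ringer, pH 7.4. Forskolin-stimulated Ieq increase after apical amiloride, normalized to DMSO and positive controls; EC50 from concentration series.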

Compound	% Activity at 10 μM (Ieq*) [1]	% Activity at 3 μM with co-corrector (Ieq) [1]	% Activity at 1 μM (Ieq*) [2]	EC50 [2]
CC(C)c1nn(-c2cccc(N3CCOCC3)c2)c2nc(C(=O)O)cc(-c3ccc(N(C)C)nc3)c12 [compound 89, 4-[6-(dimethylamino)pyridin-3-yl]-1-[3-(morpholin-4-yl)phenyl]-3-(propan-2-yl)-1H-pyrazolo[3,4-b]pyridine-6-carboxylic acid]	147.6%	–	–	–
Cc1nn(-c2ccccc2)c2nc(C(=O)O)cc(N3CCCCC3)c12 [compound 123, 3-methyl-1-phenyl-4-(piperidin-1-yl)-1H-pyrazolo[3,4-b]pyridine-6-carboxylic acid]	100.6%	–	–	–
CC(C)c1nn(-c2cccc(N3CCC3)c2)c2nc(C(=O)O)cc(-c3ccc(N4CCOCC4)cc3)c12 [compound 151, 1-[3-(azetidin-1-yl)phenyl]-4-[4-(morpholin-4-yl)phenyl]-3-(propan-2-yl)-1H-pyrazolo[3,4-b]pyridine-6-carboxylic acid]	100.6%	–	–	–
CC(C)c1nn(C2CCCCC2)c2nc(C(=O)O)cc(-c3ccc(N(C)C4CCOCC4)nc3)c12 [compound 169, 1-cyclohexyl-4-{6-[methyl(oxan-4-yl)amino]pyridin-3-yl}-3-(propan-2-yl)-1H-pyrazolo[3,4-b]pyridine-6-carboxylic acid]	–	279.1%	–	–
Cc1cccc(-n2nc(C(C)C)c3c(N4CCC(CO)CC4)cc(C(=O)O)nc32)c1 [compound 213, 4-[4-(hydroxymethyl)piperidin-1-yl]-1-(3-methylphenyl)-3-(propan-2-yl)-1H-pyrazolo[3,4-b]pyridine-6-carboxylic acid]	–	199.4%	390%	> 300 nM
N#CC1CCN(c2ccc(-c3cc(C(=O)O)nc4c3c(C3CCC3)nn4C3CCCCC3)cn2)CC1 [compound 220, 4-[6-(4-cyanopiperidin-1-yl)pyridin-3-yl]-3-cyclobutyl-1-cyclohexyl-1H-pyrazolo[3,4-b]pyridine-6-carboxylic acid]	–	122.9%	720%	120 nM
CC(C)c1nn(-c2cccc(N3CCCC3)c2)c2nc(C(=O)O)cc(-c3ccc(N4CCC(C#N)CC4)nc3)c12 [compound 222, 4-[6-(4-cyanopiperidin-1-yl)pyridin-3-yl]-3-(propan-2-yl)-1-[3-(pyrrolidin-1-yl)phenyl]-1H-pyrazolo[3,4-b]pyridine-6-carboxylic acid]	–	221.3%	–	–
